# System: healthy adult male volunteers
# Assay: Single dose study in humans, pharmacodynamic parameters after breakfast
# Assay type: in vivo, human
# Description: Single dose study in humans. A single oral dose of 2 mg, 5 mg, 10 mg, 20 mg, 40 mg, 80 mg, and 160 mg of mizagliflozin were administered to healthy adult male volunteers by a placebo-controlled, randomized, double-blind method. The single dose was administered orally immediately before breakfast with approximately 200 mL of water after fasting for at least 10 hours. Pharmacodynamic effect parameters (blood glucose level, insulin, GLP-1, and gastric inhibitory polypeptide (GIP)) were measured. Concentrations at each time point were measured, and summary statistics and coefficient variation (CV) were calculated for AUC0-t; t was up to 6 hours postdose. The time points were: before administration and 0.5, 1, 1.5, 2, 3, 4, 5, and 6 hours after administration. Blood glucose level and insulin were measured to evaluate in an exploratory manner the inhibitory effect on postprandial hyperglycemia. GLP-1 and GIP were measured to evaluate in an exploratory manner the incretin secretory action.
# [1] = single oral dose 2 mg before breakfast
# [2] = single oral dose 5 mg before breakfast
# [3] = single oral dose 10 mg before breakfast
# [4] = single oral dose 20 mg before breakfast
# [5] = single oral dose 40 mg before breakfast
# [6] = single oral dose 80 mg before breakfast
# [7] = single oral dose 160 mg before breakfast
compound,measurement,setting,value
"Cc1cc(OCCCNCC(C)(C)C(N)=O)ccc1Cc1c(O[C@@H]2O[C@H](CO)[C@@H](O)[C@H](O)[C@H]2O)n[nH]c1C(C)C [mizagliflozin, 3-(3-{4-[3-(β-D-glucopyranosyloxy)-5-isopropyl-1H-pyrazol-4-ylmethyl-]-3-methylphenoxy}propylamino)-2,2-dimethylpropionamide]",AUC 0-6 GIP,[1],818.5 pg·h/mL
same,AUC 0-6 GLP-1 (active),[1],23.7 pmol·h/L
same,AUC 0-6 Insulin,[1],123.2 uU*h/ml
same,AUC 0-6 glucose,[1],628.3 mg·h/dL
same,GIP (peak),[1],183.6 pg/mL
same,GLP-1 (active) (peak),[1],6.4 pmol/L
same,Glucose (peak),[1],128.7 mg/dL
same,Insulin (peak),[1],40.38 uU/ml
same,"Time (h) to peak, GIP",[1],4 h
same,"Time (h) to peak, GLP-1 (active)",[1],0.5 h
same,"Time (h) to peak, glucose",[1],1.5 h
same,"Time (h) to peak, insulin",[1],1.5 h
same,AUC 0-6 GIP,[2],856.9 pg·h/mL
same,AUC 0-6 GLP-1 (active),[2],28.5 pmol·h/L
same,AUC 0-6 Insulin,[2],140.7 uU*h/ml
same,AUC 0-6 glucose,[2],631.3 mg·h/dL
same,GIP (peak),[2],194.5 pg/mL
same,GLP-1 (active) (peak),[2],6.1 pmol/L
same,Glucose (peak),[2],130.3 mg/dL
same,Insulin (peak),[2],47.1 uU/ml
same,"Time (h) to peak, GIP",[2],3 h
same,"Time (h) to peak, GLP-1 (active)",[2],0.5 h
same,"Time (h) to peak, glucose",[2],1 h
same,"Time (h) to peak, insulin",[2],1.5 h
same,AUC 0-6 GIP,[3],945.7 pg·h/mL
same,AUC 0-6 GLP-1 (active),[3],41.5 pmol·h/L
same,AUC 0-6 Insulin,[3],120.4 uU*h/ml
same,AUC 0-6 glucose,[3],661.9 mg·h/dL
same,GIP (peak),[3],252.3 pg/mL
same,GLP-1 (active) (peak),[3],8.7 pmol/L
same,Glucose (peak),[3],143.8 mg/dL
same,Insulin (peak),[3],39 uU/ml
same,"Time (h) to peak, GIP",[3],4 h
same,"Time (h) to peak, GLP-1 (active)",[3],0.5 h
same,"Time (h) to peak, glucose",[3],1.5 h
same,"Time (h) to peak, insulin",[3],2 h
same,AUC 0-6 GIP,[4],783.9 pg·h/mL
same,AUC 0-6 GLP-1 (active),[4],55.8 pmol·h/L
same,AUC 0-6 Insulin,[4],89.7 uU*h/ml
same,AUC 0-6 glucose,[4],612.9 mg·h/dL
same,GIP (peak),[4],216.7 pg/mL
same,GLP-1 (active) (peak),[4],11.6 pmol/L
same,Glucose (peak),[4],113.7 mg/dL
same,Insulin (peak),[4],25.9 uU/ml
same,"Time (h) to peak, GIP",[4],4 h
same,"Time (h) to peak, GLP-1 (active)",[4],1.5 h
same,"Time (h) to peak, glucose",[4],2 h
same,"Time (h) to peak, insulin",[4],3 h
same,AUC 0-6 GIP,[5],591.4 pg·h/mL
same,AUC 0-6 GLP-1 (active),[5],32.6 pmol·h/L
same,AUC 0-6 Insulin,[5],99.7 uU*h/ml
same,AUC 0-6 glucose,[5],629.1 mg·h/dL
same,GIP (peak),[5],166.7 pg/mL
same,GLP-1 (active) (peak),[5],7.5 pmol/L
same,Glucose (peak),[5],130.3 mg/dL
same,Insulin (peak),[5],33.8 uU/ml
same,"Time (h) to peak, GIP",[5],4 h
same,"Time (h) to peak, GLP-1 (active)",[5],0.5 h
same,"Time (h) to peak, glucose",[5],1.5 h
same,"Time (h) to peak, insulin",[5],1.5 h
same,AUC 0-6 GIP,[6],621.5 pg·h/mL
same,AUC 0-6 GLP-1 (active),[6],24.1 pmol·h/L
same,AUC 0-6 Insulin,[6],70.9 uU*h/ml
same,AUC 0-6 glucose,[6],611.92 mg·h/dL
same,GIP (peak),[6],161.6 pg/mL
same,GLP-1 (active) (peak),[6],5.5 pmol/L
same,Glucose (peak),[6],116 mg/dL
same,Insulin (peak),[6],20.5 uU/ml
same,"Time (h) to peak, GIP",[6],5 h
same,"Time (h) to peak, GLP-1 (active)",[6],2 h
same,"Time (h) to peak, glucose",[6],3 h
same,"Time (h) to peak, insulin",[6],3 h
same,AUC 0-6 GIP,[7],445.5 pg·h/mL
same,AUC 0-6 GLP-1 (active),[7],39.5 pmol·h/L
same,AUC 0-6 Insulin,[7],62.7 uU*h/ml
same,AUC 0-6 glucose,[7],606.2 mg·h/dL
same,GIP (peak),[7],117.9 pg/mL
same,GLP-1 (active) (peak),[7],7.9 pmol/L
same,Glucose (peak),[7],106.5 mg/dL
same,Insulin (peak),[7],16.2 uU/ml
same,"Time (h) to peak, GIP",[7],5 h
same,"Time (h) to peak, GLP-1 (active)",[7],2 h
same,"Time (h) to peak, glucose",[7],3 h
same,"Time (h) to peak, insulin",[7],3 h

# Reference: patent US11596644B2, “Method for treating post-prandial hypoglycemia” (AVOLYNT, priority 2018, dated 2023)
